Among the data in PubChem BioAssay AID179 (DTP/NCI, 2004) are EC50, IC50 and outcome values, retold here.

The test system of this assay is CEM cells HIV-1 protection, formazan growth assay. In words: NCI AIDS Antiviral Assay. The settings on record: for IC50: measured here: growth of uninfected CEM cells. In outline:
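Protection of CEM cells against HIV-1 measured as cell growth via soluble formazan read-out, with five concentrations tested on both infected and uninfected cells; failure to protect may reflect toxicity.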

Several values for one entry are separate records, joined by “and”; a condition that tells them apart may be missing. Equal values may be shown once. Activity calls are given as the source filed them.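 How the source made its calls: active means compounds giving half or more protection of infected cells from virus-caused growth loss, again on retest; inactive means the rest.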 Where only a bound is given, the exact number is not on record here.

As a reminder, the EC50 is the concentration that produces a half-maximal response. As a reminder, the IC50 is the concentration that gives 50% inhibition. Regarding `O=C1OC(c2ccc3c(c2)OCO3)Sc2ccccc21` (configuration not stated), the EC50 is more than 18.2 µM and the 50% inhibitory concentration (IC50) is more than 18.2 µM.

In the case of `COc1cccc(NC(=O)/C(Cc2nc3ccccc3nc2C)=N/NC(=O)C[n+]2ccccc2)c1`, the EC50 was more than 95.5 µM and the IC50 is more than 95.5 µM.

Take `COc1cc2nncc(SCc3ccc(Cl)cc3Cl)c2cc1OC`: the EC50 is more than 56.2 µM and the IC50 stood at 52.5 µM.

`O=C(O)C1C2OC3C(OC(=O)C31)C2Br` (configuration not stated): the EC50 was more than 200 µM and the IC50 was more than 200 µM.

Regarding `Cc1cc2cc3ccccc3cc2c(=O)[nH]1`, the EC50 was more than 200 µM and the half-inhibitory concentration (IC50) was 182 µM.

Take `NC(CS)=NCCc1nc2ccccc2[nH]1`: the EC50 is more than 200 µM and the concentration for half-maximal inhibition (IC50) was 110 µM.

Consider `CC1OC(c2ccccc2)=CC(OCc2ccccc2)[C@H]1OCc1ccccc1` (some centres not stated), for which the EC50 was more than 200 µM and the half-inhibitory concentration (IC50) is 91.2 µM.

As to `NC(=S)N/N=C(\CC1OC(=O)c2ccccc21)c1ccc(Cl)cc1` (configuration not stated), the EC50 is more than 83.2 µM and the IC50 came to 7.24 µM.

For the molecule `Cc1c(C(=O)CC(=O)C(=O)Nc2ccc(Cl)c(Cl)c2)[n+](=O)c2ccccc2n1[O-]`, the EC50 was more than 6.31 µM and the IC50 was more than 6.31 µM.

For `O=C(NCCc1c[nH]c2ccccc12)C1CC1`, the EC50 is more than 200 µM and the IC50 came to 110 µM.

As to `CCCCn1c(-c2ccccc2)cs/c1=N\Nc1nc2c(c(=O)n(C)c(=O)n2C)n1C`, the EC50 was more than 200 µM and the IC50 was determined as 10.7 µM.

As for `O=P1(O)c2ccccc2CSCc2ccccc21`, the EC50 was more than 324 µM and the IC50 was more than 324 µM.

Regarding `O=C(O)c1cc(O)cc(O)c1N=Nc1ccc(/C=C/c2ccc(N=Nc3c(O)cc(O)cc3C(=O)O)cc2S(=O)(=O)O)c(S(=O)(=O)O)c1`, the EC50 is 0.813 µM and the half-inhibitory concentration (IC50) is 91.2 µM.

For the molecule `COC(=O)CCCC=C(c1cc(Br)c(OC)c(C(F)(F)F)c1)c1cc(Br)c(OC)c(C(F)(F)F)c1`, the EC50 was more than 200 µM and the 50% inhibitory concentration (IC50) was 40.7 µM.

As to `Cc1ccc(S(=O)(=O)C2=c3nc4ccccc4cc3=C3C(=O)c4ccccc4C(=O)C32)cc1` (configuration not stated), the EC50 is more than 21.9 µM and the IC50 was more than 21.9 µM.

For `O=c1[nH]nc(Nc2ccc(Cl)cc2)c2nnn(C3CCCCC3)c12`, the EC50 is more than 200 µM and the IC50 was more than 200 µM.

For the molecule `c1ccc(OCc2nn3c(-c4ccccc4)nnc3s2)cc1`, the EC50 was more than 200 µM and the IC50 was more than 200 µM.

On to `O=C1NCC(=O)c2ncn(C3OC(CO)C(O)C3O)c2N1` (configuration not stated), for which the EC50 was more than 603 µM and the IC50 was more than 603 µM.

In the case of `CCOC(=O)/C(=C\c1ccc(OCc2ccccc2)c(OC)c1)C(=O)c1ccccc1`, the EC50 was more than 12.6 µM and the IC50 is more than 12.6 µM.

For the molecule `CN(CCc1ccccn1)c1nc(=[N+](C)C)ss1`, the result was inactive.

For the molecule `N#Cc1c(C#N)c(-c2cccc([N+](=O)[O-])c2)n(-c2ccccc2)c1N`, the EC50 is more than 200 µM and the IC50 is 141 µM.

For the molecule `C/C=C1\CNC2Cc3c([nH]c4ccccc34)C(=O)CC1C2C(=O)OC` (configuration not stated), the result was inactive.

For the molecule `NS(=O)(=O)c1ccc(CNC(=O)c2ccccc2SC(=O)CCC[n+]2ccccc2)cc1`, the EC50 was 4.79 µM and the IC50 was found to be 13.8 µM.

For the molecule `CCOP(=O)(OCC)C(c1ccccc1)N(C(=O)NC(F)(F)F)c1ccc(C)cc1` (configuration not stated), the EC50 is more than 200 µM and the IC50 is more than 200 µM.

On to `CC(=O)N1c2cc(N=NN(C)C)ccc2NC(=O)CC1C` (configuration not stated), for which the EC50 was more than 200 µM and the IC50 is more than 200 µM.

`[N-]=[N+]=NC1C2CC3C4CC5CC3[C@H](C2)C(C5)C41` (some centres not stated): the EC50 is more than 81.3 µM and the IC50 was more than 81.3 µM.

For the molecule `O=C(COc1ccc2c(=O)cc(-c3ccccc3)oc2c1)N1CCN(c2ccccc2)CC1`, the EC50 was more than 16.2 µM and the IC50 is more than 16.2 µM.

With `C[C@@]12CCC[C@H]1[C@@H]1CC=C3C[C@@H](S)CC[C@]3(C)[C@H]1CC2`, the EC50 is more than 200 µM and the IC50 was found to be 66.1 µM.

`CC(C)(C)[Si](C)(C)OCC1OC(n2ccc(=O)[nH]c2=O)C(O[Si](C)(C)C(C)(C)C)[C@@]12O[C@H]2C(N)=O` (some centres not stated): the EC50 was more than 200 µM and the IC50 was 7.76 µM.

Consider `COc1ccc(CCN2CCOCC2)cc1`, for which the EC50 was more than 200 µM and the IC50 was more than 200 µM.

`Cc1cn(C2C=CC(CO)O2)c(=O)[nH]c1=O` (configuration not stated): the EC50 was 1.62 µM and the IC50 turned out to be 186 µM.

Consider `c1cc[c]([Sn]([O]c2cccc3cccnc23)([c]2ccccc2)[c]2ccccc2)cc1`, for which the result was inactive.

For `COc1ccc(CCNC(=S)N/C=C\c2nc3ccccc3[nH]c2=O)cc1OC`, the result was inactive.

In the case of `O=[N+]([O-])c1ccc2c(c1)n1c(N3CCCC3)[n+]3ccccc3c1c1c3cccc[n+]3c(N3CCCC3)n21`, the EC50 was 72.4 µM and the IC50 turned out to be 77.6 µM.

Turning to `O=NNc1nc(-c2cccnc2)nc2ccccc12`, the EC50 was more than 200 µM and the IC50 is more than 200 µM.

Turning to `O=C(O)/C=C\SCCCC(=O)O`, the EC50 is more than 1320 µM; the IC50 was > 1320 µM and 1100 µM.

As for `CN(C)c1ccc(-c2nc(N)nc3c2CCCC3)cc1`, the EC50 was more than 37.2 µM and the 50% inhibitory concentration (IC50) was more than 37.2 µM.

For the molecule `O=C(CC1(O)C(=O)Nc2ccc(Br)cc21)c1cccc([N+](=O)[O-])c1` (configuration not stated), the EC50 was more than 174 µM and the IC50 is 93.3 µM.

Take `CC(=O)OC1COC(n2c(-c3ccc(Cl)cc3)cc(-c3ccccc3)c(C#N)c2=S)C(OC(C)=O)C1OC(C)=O` (configuration not stated): the EC50 was more than 200 µM and the IC50 was more than 200 µM.

Take `CC(C)(C)c1ccc(OC2CCO2)cc1` (configuration not stated): the EC50 was more than 34.7 µM and the IC50 is more than 34.7 µM.

As for `O=C1Nc2cc(F)ccc2C1=O`, the EC50 was more than 1510 µM and the IC50 was 251 µM.

In the case of `NNC(=O)CC(=O)N(C(=O)c1ccccc1)c1ccc(Cl)cc1`, the EC50 was more than 200 µM and the IC50 is more than 200 µM.

As for `CCN(CCCc1ccccc1)CCCc1ccccc1`, the EC50 is more than 200 µM and the IC50 is 105 µM.

Turning to `CC(=O)Oc1cc(C(F)(F)F)ccc1C(=O)OC1(C)OC(=O)c2ccc(C(F)(F)F)cc2O1` (configuration not stated), the EC50 was more than 200 µM and the IC50 was determined as 41.7 µM.

In the case of `S=C=NC/C(Cl)=C/Cl`, the EC50 was more than 200 µM and the 50% inhibitory concentration (IC50) amounted to 129 µM.

Take `OCCCN=C1N=C(Cl)/C(=C\c2ccccc2)N1`: the EC50 is more than 200 µM and the 50% inhibitory concentration (IC50) is more than 200 µM.

Consider `Cn1[nH]cc2ccc3nc4ccccc4c(=O)c3c21`, for which the outcome was inactive.

Turning to `Clc1ccc(-c2onc3ccc(Br)cc23)cc1`, the EC50 was more than 162 µM and the IC50 was more than 162 µM.

As to `CCCCCCCCCCCCN1[C@H]2CCC[C@H]2C(O)[C@@H]2CCC[C@@H]21` (some centres not stated), the EC50 was more than 200 µM and the IC50 stood at 4.9 µM.

Regarding `CC1(C)OCC(C2OC3OC(C)(C)OC3C2OC(=S)SSC(=S)OC2C(C3COC(C)(C)O3)OC3OC(C)(C)OC32)O1` (configuration not stated), the EC50 was more than 200 µM and the IC50 turned out to be 16.6 µM.

Take `COc1ccc(NC(=O)/C(=C/N2C(=O)/C(=C\C(C)=C\c3ccccc3)SC2=S)C(C)=O)cc1`: the EC50 was more than 200 µM and the IC50 was determined as 13.5 µM.

Turning to `CCCCCCCCCCCCCCCCC(C(=O)O)C(=O)O`, the EC50 is more than 21.9 µM and the IC50 was more than 21.9 µM.

In the case of `CN1C(=O)C(Cl)(C#N)C(c2ccccc2)N(C)C1c1ccccc1` (configuration not stated), the EC50 was more than 200 µM and the 50% inhibitory concentration (IC50) turned out to be 8.71 µM.

With `N#Cc1c2n(c(=S)n(-c3ccccc3)c1=O)CCCCCCC2`, the EC50 is more than 200 µM and the IC50 is 162 µM.

Turning to `N#Cc1ccc(N(O)C(=O)c2ccccc2)cc1`, the EC50 was more than 200 µM and the half-inhibitory concentration (IC50) is 46.8 µM.

In the case of `Cc1cc(-c2ccccc2)oc(=O)c1NC(=O)c1cnccn1`, the EC50 was more than 200 µM and the concentration for half-maximal inhibition (IC50) stood at 141 µM.

`Cc1ccc(NC(=O)CCc2nnc3s/c(=C\c4cccc([N+](=O)[O-])c4)c(=O)n23)cc1`: the EC50 was more than 1.74 µM and the IC50 was more than 1.74 µM.

As to `COC(=O)C(=O)C(C(=O)C(=O)Nc1ccc([N+](=O)[O-])cc1[N+](=O)[O-])c1nc2ccc(Cl)cc2[nH]c1=O` (configuration not stated), the EC50 is more than 132 µM and the IC50 is more than 132 µM.

On to `CO/N=C1\CC(NC(=O)CNC(=O)OC(C)(C)C)c2ccsc21` (configuration not stated), for which the EC50 is more than 200 µM and the IC50 was more than 200 µM.

As for `CC1OC1C(=O)C1(O)C(C)C(O)C23OC2(C(O)c2c(O)cccc2C3=O)C1O` (configuration not stated), the EC50 is more than 229 µM and the IC50 was 0.229 µM.

Take `COC(=O)C1CCC(=O)N1CN(C(C)=O)c1cccc(O)c1` (configuration not stated): the EC50 is more than 200 µM and the IC50 is more than 200 µM.

For the molecule `C=C1c2nc3ccccc3n2C=C(c2ccc(OC)cc2)N1c1ccc(OC)cc1`, the EC50 was more than 200 µM and the IC50 is 33.1 µM.

For the molecule `NC(=O)c1cccc(NC=O)c1`, the EC50 is more than 1510 µM and the IC50 came to 1290 µM.

As for `COc1cc2c(cc1OC)NC(=O)CC(=O)N2`, the EC50 is more than 200 µM and the IC50 is more than 200 µM.

Take `COC(=O)C(=O)C(C(=O)C(=O)Nc1ccc(C)c(C)c1)c1nc2ccc([N+](=O)[O-])cc2[nH]c1=O` (configuration not stated): the EC50 was more than 537 µM and the IC50 amounted to 234 µM.

`CCCCC(C)C(OC(=O)CC(CC(=O)O)C(=O)O)C(CC(C)CC(O)CCCCC(O)CC(O)C(C)N)OC(=O)CC(CC(=O)O)C(=O)O` (configuration not stated): the outcome was inactive.

With `CCCCCCCCCCCCCCCCOP(=O)([O-])OCC[N+](C)(C)C`, the EC50 is more than 309 µM and the IC50 was 2.45 µM.

Take `O=C(O)c1ccc(NNC(=O)c2cccc3c(=O)c4ccccc4[nH]c23)cc1`: the EC50 is more than 200 µM and the IC50 was 74.1 µM.

Turning to `O=C(Nc1ccccc1)c1cc2cc(N=Nc3ccc(Br)cc3)ccc2oc1=O`, the outcome was inactive.

On to `Nc1nccc(NCC2(CO)CCC2)n1`, for which the EC50 is more than 200 µM and the IC50 is more than 200 µM.

In the case of `CCOC(=O)CCC(=O)C1c2cccc(O)c2C(=O)c2c(O)cc(C)cc21` (configuration not stated), the EC50 was more than 37.2 µM and the IC50 stood at 1.35 µM.

Turning to `CC1=NNC(=O)C1N=Nc1c(C)n(C)n(-c2ccccc2)c1=O` (configuration not stated), the EC50 was more than 200 µM and the IC50 came to 16.6 µM.
